The experiment concerns the target S-adenosylmethionine decarboxylase proenzyme (Escherichia coli) (UniProt P0A7F6). Nature of the experiment: Tested for irreversible inhibitory activity against AdoMet-DC (S-adenosyl-methionine decarboxylase-) isolated from Escherichia coli.
Chain of S-adenosylmethionine decarboxylase proenzyme (Escherichia coli) (P0A7F6 whole entry, looked up): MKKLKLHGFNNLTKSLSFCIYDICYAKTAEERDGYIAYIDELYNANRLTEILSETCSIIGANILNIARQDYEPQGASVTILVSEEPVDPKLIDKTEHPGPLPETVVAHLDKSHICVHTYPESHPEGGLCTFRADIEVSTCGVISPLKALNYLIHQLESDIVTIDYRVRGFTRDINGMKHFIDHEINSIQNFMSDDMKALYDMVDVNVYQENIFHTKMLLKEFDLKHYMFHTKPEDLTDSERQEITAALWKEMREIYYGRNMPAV
As to `Nc1ncnc2c1ncn2[C@@H]1O[C@H](CS[C@H]2CN[C@H](C(=O)O)C2)[C@@H](O)[C@H]1O`, the Ki came to 960 µM. As for `C[S+](C[C@H]1O[C@@H](n2cnc3c(N)ncnc32)[C@H](O)[C@@H]1O)C1CCNC1` (stereo not given in full), the Ki came to 669 µM.

As to `Nc1ncnc2c1ncn2[C@@H]1O[C@H](CSC2CCNC2)[C@@H](O)[C@H]1O` (stereo not given in full), the Ki amounted to 415 µM.

Regarding `Nc1ncnc2c1ncn2[C@@H]1O[C@H](CS[C@@H]2CN[C@H](C(=O)O)C2)[C@@H](O)[C@H]1O`, the Ki came out at 478 µM. `C[S+](C[C@H]1O[C@@H](n2cnc3c(N)ncnc32)[C@H](O)[C@@H]1O)C1C=C[C@H](N)C1` (stereo not given in full) had a Ki of 18 µM.

(Values after BindingDB's records for doi:10.1016/S0960-894X(01)80865-9 (1993).)
